Reference: US20240059691A1 (KALVISTA PHARMACEUTICALS LIMITED, priority 2020, published 2024)

Columns and labels:
FXIa = FXIa (Homo sapiens (Human), UniProt P03951); experiment: Determination of related protease inhibition: FXIa (fixed substrate concentration of 100 μM); format: biochemical; details: 25° C.
[1] = Pharmacokinetics following a single intravenous dose and a single oral dose in male Sprague-Dawley rats (oral bioavailability, half-life); format: in vivo; details: rat, plasma, 10% DMSO/10% Cremophor EL/80% SWFI; for bioavailability: read-out: F % (oral bioavailability)
Procedure: Pharmacokinetic studies of the compounds in Table 16 were performed to assess the pharmacokinetics following a single intravenous dose and a single oral dose in male Sprague-Dawley rats. Two rats were given a single intravenous dose of 1 mL/kg of a nominal 1 mg/mL (1 mg/kg) composition of test compound in 10% DMSO/10% Cremophor EL/80% SWFI vehicle. Example 2191 was dosed at 1 mL/kg of a nominal 2 mg/mL (2 mg/kg) using the same vehicle.
Two rats were given a single oral dose of 5 mL/kg of a nominal 1 mg/mL (5 mg/kg) composition of test compound in 10% DMSO/10% Cremophor EL/80% SWFI vehicle. Example 2191 was dosed at 5 mL/kg of a nominal 2 mg/mL (10 mg/kg) using the same vehicle.
Following intravenous dosing, blood samples were collected over a period of 12 h. Sample times were 2, 5, 15 and 30 min then 1, 2, 4, 6, and 12 h. Following oral dosing, blood samples were collected over a period of 24 h. Sample times were 5, 15 and 30 min then 1, 2, 4, 6, 8, 12 and 24 h.
Following collection, blood samples were centrifuged and the plasma fraction analysed for concentration of test compound by LCMS. Oral bioavailability and half-life calculations from these studies were obtained using Phoenix WinNonlin (v8.0) and are shown below: […]

Thrombin = Thrombin (Homo sapiens (Human), UniProt P00734); experiment: Determination of related protease inhibition: Thrombin (fluorogenic substrate at Km); format: biochemical; details: 25° C.
Method in brief: (§1)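 Human protease + fluorogenic substrate (at Km) + test cpd, varied concns; fluorescence kinetic read 5 min, 25 °C. Linear slope → % activity vs uninhibited control; IC50 at 50% inhibition.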

Human Factor XIIa = Human Factor XIIa (Homo sapiens (Human), UniProt P00748); experiment: Determination of FXIIa inhibition (fluorogenic substrate H-DPro-Phe-Arg-AFC, IC50 assay); format: biochemical; details: substrate H-DPro-Phe-Arg-AFC at Km, 25° C.; class scale A-G
Chain of Human Factor XIIa (P00748 373-615): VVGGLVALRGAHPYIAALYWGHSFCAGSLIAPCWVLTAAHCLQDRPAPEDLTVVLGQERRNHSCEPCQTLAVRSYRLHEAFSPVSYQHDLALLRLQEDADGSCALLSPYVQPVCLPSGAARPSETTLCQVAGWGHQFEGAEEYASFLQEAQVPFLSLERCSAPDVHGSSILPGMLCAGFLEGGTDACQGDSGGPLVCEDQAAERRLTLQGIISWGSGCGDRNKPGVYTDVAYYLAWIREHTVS
Method in brief: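 Human FXIIa incubated at 25° C with fluorogenic substrate H-DPro-Phe-Arg-AFC at its Km concentration and varying compound concentrations. Fluorescence release monitored over 5 min at 25° C; linear rate expressed as % of uninhibited activity to derive IC50.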

Plasma Kallikrein = Plasma Kallikrein (Homo sapiens (Human), UniProt P03952); experiment: Determination of related protease inhibition: Plasma Kallikrein (fluorogenic substrate at Km); format: biochemical; details: 25° C., read-out: IC50 (human PKal)
Chain of Plasma Kallikrein (P03952 391-638): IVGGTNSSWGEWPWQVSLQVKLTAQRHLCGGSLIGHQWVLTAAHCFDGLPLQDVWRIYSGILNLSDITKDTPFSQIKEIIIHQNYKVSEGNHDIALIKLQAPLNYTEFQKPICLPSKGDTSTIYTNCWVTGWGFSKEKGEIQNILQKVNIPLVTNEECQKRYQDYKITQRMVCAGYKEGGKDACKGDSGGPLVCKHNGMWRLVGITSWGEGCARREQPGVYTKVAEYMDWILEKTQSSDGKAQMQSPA
Chain of Plasma Kallikrein (P03952 20-390 partner): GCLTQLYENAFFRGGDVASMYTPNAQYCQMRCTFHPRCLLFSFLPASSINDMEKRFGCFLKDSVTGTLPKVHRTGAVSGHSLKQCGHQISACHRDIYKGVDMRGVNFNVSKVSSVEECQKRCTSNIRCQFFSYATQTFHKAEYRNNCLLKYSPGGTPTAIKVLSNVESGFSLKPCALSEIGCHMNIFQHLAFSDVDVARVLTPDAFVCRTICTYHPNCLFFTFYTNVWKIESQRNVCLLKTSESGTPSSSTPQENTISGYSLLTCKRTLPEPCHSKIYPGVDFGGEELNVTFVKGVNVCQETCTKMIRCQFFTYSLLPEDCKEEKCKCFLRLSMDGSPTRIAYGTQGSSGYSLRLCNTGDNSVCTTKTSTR
Method in brief: as §1

Trypsin = experiment: Determination of related protease inhibition: Trypsin (fluorogenic substrate at Km); format: biochemical, human; details: 25° C.
Procedure: (§2) Determination of Related Protease Inhibition
(§3) In vitro inhibition of related proteases was determined using an ([…] assay based on standard literature methods (see e.g. Shori et al., Biochem. Pharmacol., 1992, 43, 1209; Bouckaert et al., European Journal of Medicinal Chemistry 110 (2016) 181). Human serine protease enzymes Plasma Kallikrein, KLK1, FXa, Plasmin, Thrombin and Trypsin were assayed for enzymatic activity using an appropriate fluorogenic substrate at Km concentration, FXIa at fixed substrate concentration of 100 μM, and various concentrations of the test compound. Protease activity was measured by monitoring the accumulation of liberated fluorescence from the substrate over […]. The linear rate of fluorescence increase per minute was expressed as percentage (%) activity. IC50 values were calculated as the concentration of inhibitor giving 50% inhibition of the uninhibited enzyme activity (100%).

KLK1 = KLK1 (Homo sapiens (Human), UniProt P06870); experiment: Determination of related protease inhibition: KLK1 (fluorogenic substrate at Km); format: biochemical; details: 25° C.
Chain of KLK1 (P06870 25-262): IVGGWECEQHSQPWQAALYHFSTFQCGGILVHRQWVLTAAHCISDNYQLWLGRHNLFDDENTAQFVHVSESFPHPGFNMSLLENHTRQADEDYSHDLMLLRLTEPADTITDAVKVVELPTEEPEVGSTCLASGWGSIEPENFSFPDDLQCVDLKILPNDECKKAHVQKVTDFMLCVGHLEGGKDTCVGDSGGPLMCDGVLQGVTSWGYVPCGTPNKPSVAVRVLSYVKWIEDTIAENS
Method in brief: as §1

FXa = FXa (Homo sapiens (Human), UniProt P00742); experiment: Determination of related protease inhibition: FXa (fluorogenic substrate at Km); format: biochemical; details: 25° C.
Chain of FXa (P00742 235-488): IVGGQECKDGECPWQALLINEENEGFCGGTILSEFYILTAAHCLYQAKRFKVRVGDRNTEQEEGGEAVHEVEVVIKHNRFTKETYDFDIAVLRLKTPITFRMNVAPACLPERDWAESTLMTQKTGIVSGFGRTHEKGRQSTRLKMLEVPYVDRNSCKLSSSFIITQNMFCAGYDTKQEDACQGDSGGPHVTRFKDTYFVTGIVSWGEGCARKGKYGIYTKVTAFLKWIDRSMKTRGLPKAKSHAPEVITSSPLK
Chain of FXa (P00742 41-179 partner): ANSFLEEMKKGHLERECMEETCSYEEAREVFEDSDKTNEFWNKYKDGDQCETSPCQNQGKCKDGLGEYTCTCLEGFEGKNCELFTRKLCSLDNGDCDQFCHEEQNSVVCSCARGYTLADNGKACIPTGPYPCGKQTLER
Method in brief: as §1

Plasmin = Plasmin (Homo sapiens (Human), UniProt P00747); experiment: Determination of related protease inhibition: Plasmin (fluorogenic substrate at Km); format: biochemical; details: 25° C.
Chain of Plasmin (P00747 581-810): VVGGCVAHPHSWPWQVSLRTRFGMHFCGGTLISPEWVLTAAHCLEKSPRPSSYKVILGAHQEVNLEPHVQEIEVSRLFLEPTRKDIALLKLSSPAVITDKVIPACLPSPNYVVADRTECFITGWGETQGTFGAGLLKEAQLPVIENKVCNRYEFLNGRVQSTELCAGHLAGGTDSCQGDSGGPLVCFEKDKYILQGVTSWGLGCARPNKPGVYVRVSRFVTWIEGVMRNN
Chain of Plasmin (P00747 97-580 partner): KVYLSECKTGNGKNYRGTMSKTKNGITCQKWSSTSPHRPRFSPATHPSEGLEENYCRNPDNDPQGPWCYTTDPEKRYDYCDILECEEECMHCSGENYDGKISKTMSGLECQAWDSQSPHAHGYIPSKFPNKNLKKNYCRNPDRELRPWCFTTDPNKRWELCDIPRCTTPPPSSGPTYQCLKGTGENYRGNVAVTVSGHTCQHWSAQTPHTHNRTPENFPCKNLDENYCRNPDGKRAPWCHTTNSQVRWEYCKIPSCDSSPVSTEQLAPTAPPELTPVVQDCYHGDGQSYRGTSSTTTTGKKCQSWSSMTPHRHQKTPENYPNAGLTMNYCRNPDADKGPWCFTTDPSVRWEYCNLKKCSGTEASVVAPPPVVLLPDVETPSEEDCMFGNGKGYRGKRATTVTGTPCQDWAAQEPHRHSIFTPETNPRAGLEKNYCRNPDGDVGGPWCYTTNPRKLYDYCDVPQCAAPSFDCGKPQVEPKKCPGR
Procedure: as §2, §3

Chain of FXIa (P03951 388-625): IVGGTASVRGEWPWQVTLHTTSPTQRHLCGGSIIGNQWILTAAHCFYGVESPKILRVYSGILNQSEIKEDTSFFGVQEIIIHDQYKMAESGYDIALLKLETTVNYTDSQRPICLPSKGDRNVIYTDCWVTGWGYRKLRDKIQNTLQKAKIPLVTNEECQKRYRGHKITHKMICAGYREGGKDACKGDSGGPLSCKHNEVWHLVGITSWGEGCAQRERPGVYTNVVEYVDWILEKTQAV
Chain of FXIa (P03951 19-387 partner): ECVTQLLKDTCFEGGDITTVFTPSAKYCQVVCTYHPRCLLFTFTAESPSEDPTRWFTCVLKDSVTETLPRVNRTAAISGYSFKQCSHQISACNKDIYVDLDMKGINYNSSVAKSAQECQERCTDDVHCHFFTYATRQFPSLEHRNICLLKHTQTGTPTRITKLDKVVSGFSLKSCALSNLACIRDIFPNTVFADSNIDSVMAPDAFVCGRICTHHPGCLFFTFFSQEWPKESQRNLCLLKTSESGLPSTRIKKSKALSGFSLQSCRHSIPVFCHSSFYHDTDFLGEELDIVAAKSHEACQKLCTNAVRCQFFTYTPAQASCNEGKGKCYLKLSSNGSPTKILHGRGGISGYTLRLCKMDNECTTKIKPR

`CN1CCC(COc2cc(CNc3ccc4c(N)ncc(Cl)c4c3)ccn2)CC1` [Example 4268, 4-Chloro-N6-((2-((1-methylpiperidin-4-yl)methoxy)pyridin-4-yl)methyl)isoquinoline-1,6-diamine] showed an IC50 (FXIa) of over 40 µM, a half-life [1] of 12.4 h and a bioavailability [1] of 3%. It also gave an IC50 (Thrombin) of over 40 µM, an IC50 (Human Factor XIIa) of 0.01 to 0.1 µM and an IC50 (Plasma Kallikrein) of 10 to 40 µM. For the same compound, the IC50 (Trypsin) was over 40 µM, the IC50 (KLK1) was 1 to 3 µM and the IC50 (FXa) was 3 to 10 µM. It also gave an IC50 (Plasmin) of over 40 µM.
Work on `CC(C)N1C[C@@H]2C[C@H]1CN2CCc1ccc(CNc2cccc3c(N)nccc23)c(F)c1` (stereo in doubt) [Example 2212, N5-[[2-fluoro-4-[2-[(1S,4S)-5-isopropyl-2,5-diazabicyclo[2.2.1]heptan-2-yl]ethyl]phenyl]methyl]isoquinoline-1,5-diamine] yielded an IC50 (FXIa) of over 40 µM, a half-life [1] of 4.34 h and a bioavailability [1] of 6.8%. For the same compound, the IC50 (Thrombin) was over 40 µM, the IC50 (Human Factor XIIa) was 0.1 to 0.3 µM and the IC50 (Plasma Kallikrein) was 3 to 10 µM. For the same compound, the IC50 (Trypsin) was over 40 µM, the IC50 (KLK1) was 10 to 40 µM and the IC50 (FXa) was over 40 µM. For the same compound, the IC50 (Plasmin) was over 40 µM.
In the case of `Nc1ncc(Cl)c2cc(NCc3ccnc(OCC4CCn5ccnc5C4)c3)ccc12` (single isomer, unassigned) [Example 4438, (S*)-4-chloro-N6-((2-((5,6,7,8-tetrahydroimidazo[1,2-a]pyridin-7-yl)methoxy)pyridin-4-yl)methyl)isoquinoline-1,6-diamine], the IC50 (FXIa) is reported as over 40 µM, the IC50 (Thrombin) is reported as 10 to 40 µM and the IC50 (Human Factor XIIa) is reported as 0.1 to 0.3 µM. For the same compound, the IC50 (Plasma Kallikrein) was 10 to 40 µM, the IC50 (Trypsin) was over 40 µM and the IC50 (KLK1) was 3 to 10 µM. The IC50 (FXa) was 10 to 40 µM and the IC50 (Plasmin) was over 40 µM.
Compound `Cc1cn2c(n1)CC(COc1cc(CNc3cccc4c(N)nccc34)ccn1)CC2` (single isomer, unassigned) [Example 4446, (S*)-N5-((2-((2-methyl-5,6,7,8-tetrahydroimidazo[1,2-a]pyridin-7-yl)methoxy)pyridin-4-yl)methyl)isoquinoline-1,5-diamine] has an IC50 (FXIa) of 10 to 40 µM, an IC50 (Thrombin) of over 40 µM and an IC50 (Human Factor XIIa) of 0.01 to 0.1 µM. For the same compound, the IC50 (Plasma Kallikrein) was 3 to 10 µM, the IC50 (Trypsin) was 10 to 40 µM and the IC50 (KLK1) was 3 to 10 µM. For the same compound, the IC50 (FXa) was 3 to 10 µM and the IC50 (Plasmin) was over 40 µM.
Work on `Nc1nccc2c(NCc3ccc(N4CCn5ccnc5C4)nc3)cccc12` [Example 1128, 5-N-[(6-{5H,6H,8H-imidazo[1,2-a]piperazin-7-yl}pyridin-3-yl)methyl]isoquinoline-1,5-diamine] yielded an IC50 (FXIa) of over 40 µM, an IC50 (Thrombin) of 10 to 40 µM and an IC50 (Human Factor XIIa) of 0.3 to 1 µM. It also gave an IC50 (Plasma Kallikrein) of over 40 µM, an IC50 (Trypsin) of over 40 µM and an IC50 (KLK1) of 3 to 10 µM. The IC50 (FXa) was over 40 µM and the IC50 (Plasmin) was over 40 µM.
Work on `CN1CCC(COc2cc(CNc3cc4ccnc(N)c4cn3)ccn2)CC1` [Example 4271, 6-N-({2-[(1-methylpiperidin-4-yl)methoxy]pyridin-4-yl}methyl)-2,7-naphthyridine-1,6-diamine] yielded an IC50 (FXIa) of over 40 µM, an IC50 (Thrombin) of 10 to 40 µM and an IC50 (Human Factor XIIa) of 1 to 3 µM. For the same compound, the IC50 (Plasma Kallikrein) was 10 to 40 µM, the IC50 (Trypsin) was over 40 µM and the IC50 (KLK1) was 10 to 40 µM. It also gave an IC50 (FXa) of 0.3 to 1 µM and an IC50 (Plasmin) of over 40 µM.
Work on `CN1CCC(CNc2ccc(CNc3ccnc4[nH]ccc34)cn2)CC1` [Example 1197, N-((6-(((1-methylpiperidin-4-yl)methyl)amino)pyridin-3-yl)methyl)-1H-pyrrolo[2,3-b]pyridin-4-amine] yielded an IC50 (FXIa) of over 40 µM, an IC50 (Thrombin) of over 40 µM and an IC50 (Human Factor XIIa) of 1 to 3 µM. It also gave an IC50 (Plasma Kallikrein) of over 40 µM, an IC50 (Trypsin) of over 40 µM and an IC50 (KLK1) of over 40 µM. For the same compound, the IC50 (FXa) was over 40 µM and the IC50 (Plasmin) was over 40 µM.
